Here are results for one sequence from patent publication US8349801B2, “Peptide ligands for G-protein coupled receptors” (priority 2006, dated 2013).

The subject of this assay is Isoproterenol induced rats. Kind of assay: Cardiac remodeling induced by Isoproterenol. It is filed as in vivo, Wistar rats. The conditions noted are these: 1 ug/hour/Kg osmotic minipump, partial data. Here is the method:
The effect of the peptides […] (SEQ ID NO:10), […]-dimer ([…]) (SEQ ID […]), P33_V (SEQ ID NO:7), P33-dimer (P33_D) (SEQ ID NO:6) on cardiac remodeling, was tested by determining their effect on heart hypertrophy and fibrosis (deposition of collagen I, III, and fibronectin) induced by Isoproterenol. Losartan (an antagonist of the known angiotensin II receptor, AT1, Kucharewicz et al., 2002; Hypertension, (40): 774-779) was used as positive control. The negative control group was treated with vehicle only. Additional control groups included rats not-treated with isoproterenol which were treated with the peptides, with Losartan or with the vehicle. The analysis included determination of the left ventricle mass and morphometry. In addition, immunofuorescence analysis of fibronectin and collagens I and III deposition was performed by confocal microscopy. Animals Acclimatization: Male Wistar rats Age: 13-14 weeks (250 to 300 g) were maintained in the animal facilities for 7 days before the beginning of the experiment. The animals were exposed to a brightness circle of light-dark cycle of 12 hs (day-06:00 to 18:00; night-18:00 to 06:00), and the room temperature was kept at 23±2° C. Heart failure was induced by daily injections of isoproterenol (2 mg/kg/day, subcutaneously) during 7 days. […] Immunofluorescence-labeling and quantitative confocal microscopy was used to investigate the distribution and quantity of collagen types I, III and fibronectin present in the left ventricles. […] Optimal confocal settings (aperture, gain and laser power) were determined at the beginning of each imaging session and then held constant during the analysis of all the samples. […] For quantitative analysis of collagens I, III, and fibronectin, the ImageTool 2.0 image analysis program was used ([…].edu/[…]) to measure the fluorescence intensity in images randomly selected. […]

No end group written: not given here.

Consider “FLGYCIYLNRKRRGDPAFKRRLRD (also: dimer via cysteine; listed as Homo sapiens) [Peptide P61_dimer]”, for which the “effect as measured by Fibronectin deposition” value (3 out of 6 animals) is on record as “not significant”. Besides, the “heart hypertrophy induced by Isoproterenol, as indicated by deposition of fibronectin, Collagen I and Collagen III” value (3 out of 6 animals of each group) is reported as “effective in reducing the heart hypertrophy”.
